Series [1] deals with lethal effect of norepinephrine. The series can be described thus: adrenolytic activity in vivo in rats towards the lethal effect of norepinephrine. Conditions: Rattus norvegicus. The procedure:
3) Determination of the adrenolytic activity "in vivo" in rats:
(§1) a) Principle of the measurement
The intravenous injection of norepinephrine (0.4 mg.kg^-1) into wake rats causes the death of 100% of the animals. The prior administration of a substance with an alpha-blocking property enables this toxicity to be reduced.
The results are expressed in the form of the 50% effective dose (ED50), i.e. the dose in mg.kg^-1 which protects 50% of the animals.

The test system of series [2] is increase in ureteral pressure induced by norepinephrine. Kind of series: inhibitory action on the increase in ureteral pressure induced in rabbits by intravenous norepinephrine. Conditions: for ED50: Oryctolagus cuniculus, iv, norepinephrine-induced ureteral hyperpressure, read-out: ID50 (50 percent inhibitory dose). It counts as in vivo, anesthetized male rabbits. As for the experimental part: 4) Determination of the inhibitory action of the compounds towards the increase in ureteral pressure induced in rabbits by the intravenous administration of norepinephrine
as §1
The ureteral pressure is measured by catheterization of the prostatic ureter of anesthetized male rabbits. The increase in ureteral pressure is induced by an intravenous injection of norepinephrine. This hyperpressure can be inhibited by the prior administration of molecules with alpha-blocking potential.
These are shown in Table 5 in the form of the 50% inhibitory dose (ID50), which is defined as being the dose of product which, when administered intravenously, causes a 50% inhibition of the ureteral hyperpressure induced by norepinephrine.

Series [3] in a line: Acute toxicity in mice, single oral administration. Conditions: mouse, in vivo, male mice, 14 days observation, read-out: LD50 (50 percent lethal dose). The procedure: 1) Acute toxicity in mice:
Principle of the measurement
The products were administered orally, in a single dose, to male mice with an average weight of 22 g. The mortality was recorded after an observation period of 14 days.
The results are expressed in the form of the 50% lethal dose (LD50), i.e. the theoretical dose in mg.kg^-1, administered orally, which causes the death of 50% of the animals.

The target of series [4] is T1, post-synaptic alpha-adrenergic receptors (isolated rat vas deferens) (Rattus norvegicus, UniProt P43140).
T1 construct: isolated rat vas deferens; from tissue; host or cells: isolated rat vas deferens
T1 sequence (P43140 1-466): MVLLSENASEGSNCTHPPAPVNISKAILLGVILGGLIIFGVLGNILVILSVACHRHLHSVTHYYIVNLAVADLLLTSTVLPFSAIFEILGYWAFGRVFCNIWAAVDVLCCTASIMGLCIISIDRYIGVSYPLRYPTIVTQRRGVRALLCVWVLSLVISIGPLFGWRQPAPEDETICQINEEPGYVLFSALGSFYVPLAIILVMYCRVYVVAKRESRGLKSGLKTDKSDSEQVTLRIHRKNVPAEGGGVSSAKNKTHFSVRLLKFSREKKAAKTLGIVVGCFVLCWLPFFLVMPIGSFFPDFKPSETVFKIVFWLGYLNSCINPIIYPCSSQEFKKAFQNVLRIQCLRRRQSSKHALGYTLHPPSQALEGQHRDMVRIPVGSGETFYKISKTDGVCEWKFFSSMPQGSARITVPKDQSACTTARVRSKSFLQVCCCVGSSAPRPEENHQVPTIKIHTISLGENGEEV
Kind of series: alpha-blocking activity towards norepinephrine on isolated rat vas deferens. Conditions: norepinephrine contraction, read-out: pA2 (converted). The procedure:
2) Determination of the alpha-blockinq activity on isolated rat vas deferens
as §1
Stimulation of the post-synaptic alpha-adrenergic receptors by norepinephrine causes contraction of the isolated vas deferens.
The concentration of product in whose presence the norepinephrine concentration must be doubled to obtain the same effect as in the absence of said product is determined.
The logarithm of this concentration, with its sign changed, constitutes the pA2 of the products.

Where [5] appears, read: oral, norepinephrine 0.4 mg.kg^-1 i.v., read-out: ED50 (50 percent effective dose).

The results in this text go back to patent US5120736A, “4-methyl-5-(2-(4-phenylpiperazin-1-yl)ethyl)thiazole derivatives their method of preparation and the pharmaceutical compositions in which they are present” (Institut de Recherches Chimiques et Biologiques Appliquees, priority 1988, dated 1992).

Each structure is given as a SMILES string. Like-named read-outs stand apart in the source and are kept apart here. Some results are limits rather than exact numbers.

Take `Cc1ncsc1CCN1CCN(c2ccccc2)CC1` [4-methyl-5-[2-(4-phenylpiperazin-1-yl)ethyl]thiazole, reference compound]: in series [1] (po, prior-art compound, under the same conditions, read-out: ED50), the ED50 turned out to be 8.7 mg/kg.

In the case of `CCOc1ccccc1N1CCN(CCc2scnc2C)CC1.Cl.Cl.Cl` [B 1211, 4-methyl-5-[2-(4-o-ethoxyphenylpiperazin-1-yl)ethyl]thiazole trihydrochloride], the ED50 came out at 0.16 mg/kg in series [2] and 2 mg/kg in series [1] (setting [5]). The LD50 at 336 h in series [3] was above 1000 mg/kg. Moreover, in series [4], the Kb was 26.3 nM.

Consider `Cc1ncsc1CCN1CCN(c2ccccc2O)CC1.Cl.Cl` [B 1302, 4-methyl-5-[2-(4-o-hydroxyphenylpiperazin-1-yl)ethyl]thiazole dihydrochloride], for which the ED50 turned out to be 0.44 mg/kg in series [2] and 4 mg/kg in series [1] (setting [5]). In series [3], the LD50 at 336 h was 490 mg/kg. Moreover, the Kb in series [4] was 126 nM.

On to `CCCCOc1ccccc1N1CCN(CCc2scnc2C)CC1.Cl` [B 1341, 4-methyl-5-[2-(4-o-butoxyphenylpiperazin-1-yl)ethyl]thiazole monohydrochloride], for which the figures for the ED50 in series [2] and in series [1] (setting [5]) were 0.39 mg/kg and 1 mg/kg, respectively. For the same molecule, the LD50 at 336 h in series [3] is above 1000 mg/kg. Moreover, the Kb in series [4] is 10 nM.

For `CCCCCOc1ccccc1N1CCN(CCc2scnc2C)CC1.Cl` [B 1357, 4-methyl-5-[2-(4-o-pentoxyphenylpiperazin-1-yl)ethyl]thiazole monohydrochloride], the figures for the ED50 in series [2] and in series [1] (setting [5]) were 0.46 mg/kg and 1.8 mg/kg, respectively. The LD50 at 336 h in series [3] is above 1000 mg/kg. Moreover, in series [4], the Kb is 17 nM.

On to `CCCOc1ccccc1N1CCN(CCc2scnc2C)CC1` [B 1359], for which the ED50 in series [1] (setting [5]) is 1.93 mg/kg. In addition, the 50% lethal dose (LD50) at 336 h in series [3] is above 1000 mg/kg. Moreover, in series [4], the Kb is 57.5 nM.

For `Cc1ncsc1CCN1CCN(c2ccccc2OC(C)C)CC1.Cl` [B 1398, 4-methyl-5-[2-(4-o-isopropoxyphenylpiperazin-1-yl)ethyl]thiazole monohydrochloride], the ED50 in series [2] came to 0.09 mg/kg; in series [1] (setting [5]), 0.44 mg/kg. Further, the “effectiveness against ureteral hyperpressure (in words)” value in series [2] (i.v., in words) is given as “remarkably effective”. The LD50 at 336 h in series [3] was above 1000 mg/kg. For the same molecule, the Kb in series [4] was 17 nM.

For `Cc1ncsc1CCN1CCN(c2ccccc2OCC(C)C)CC1` [B 1422], the ED50 in series [1] (setting [5]) was determined as 1.6 mg/kg. For the same molecule, the 50% lethal dose (LD50) at 336 h in series [3] is above 1000 mg/kg. The Kb in series [4] is 36.3 nM.

For `Cc1ncsc1CCN1CCN(c2ccccc2OCCC(C)C)CC1` [B 1423], in series [1] (setting [5]), the ED50 came out at 2.35 mg/kg. In addition, the LD50 at 336 h in series [3] was above 1000 mg/kg. The Kb in series [4] was 45.7 nM.

With `Cc1ncsc1CCN1CCN(c2ccccc2OCC(C)(C)C)CC1` [B 1424], the ED50 in series [1] (setting [5]) worked out at 2.04 mg/kg. For the same molecule, the LD50 at 336 h in series [3] is above 1000 mg/kg. Moreover, the Kb in series [4] was 200 nM.

`Cc1ncsc1CCN1CCN(c2ccccc2OCc2ccccc2)CC1` [B 1425]: in series [1] (setting [5]), the ED50 amounted to 5 mg/kg. The LD50 at 336 h in series [3] was above 1000 mg/kg. For the same molecule, the Kb in series [4] is 63.1 nM.

For the molecule `COc1ccccc1N1CCN(CCc2scnc2C)CC1.Cl.Cl.Cl` [B 1433, 4-methyl-5-[2-(4-o-methoxyphenylpiperazin-1-yl)ethyl]thiazole trihydrochloride], the ED50 in series [2] is 0.3 mg/kg; in series [1] (setting [5]) it was 2.66 mg/kg. For the same molecule, the LD50 at 336 h in series [3] was above 1000 mg/kg. Further, the Kb in series [4] is 14.5 nM.
